Source: patent US8703956B2, “Amorphous (5-fluoro-2-methyl-3-quinolin-2-ylmethyl-indol-1-yl)-acetic acid” (Atopix Therapeutics Limited, priority 2011, dated 2014)
Converted amounts (≈) assume the structure as drawn. Structures can show the parent of a compound that is named as a salt. Where two headings read alike, the source gives them in different places. Values belong to the compound of their own block, whether it stands above or below them.

How the values were obtained:
[1] = Solubility in aqueous solutions (Example 10); assay type: physicochemical; details: for Solubility in water: Table 12; for solubility: thermodynamic from solid, read-out: Compound 1 Solubility; for Increase in water solubility: relative to Compound 1 as-received (0.0006 mg/mL)
Procedure: Crystalline and amorphous Compound 1/polymer formulation solubility was determined in different aqueous media (Tables 8A and 8B).
As mentioned earlier, the high solubility of the Compound 1 sodium salt most probably resulted from the conversion of the Compound 1 to its ionized form. In relation to crystalline Compound 1 (as-received sample), formulations containing amorphous form (Tables 11A and 11B) were more soluble than crystalline form under all studied conditions.

[2] = Solubility screening in solvents (Example 2); assay type: physicochemical; details: thermodynamic from solid, read-out: Compound 1 Solubility; for solubility at 12 h: 12 h room temperature
Procedure: Before carrying out spray drying experiments, a solvent screening was performed to determine potential solvent that will allow sufficient concentration of Compound 1 in spray drying solution. Approximately 50 mg of Compound 1 was added to 100 mL of each evaluated solvent until visual observation of solution saturation. […]

animal models of asthma = details: in vivo; cited from earlier work
[3] = Solubility in USP simulated gastric and intestinal fluids (Example 11); assay type: physicochemical; details: SGF pH 1.2 and SIF pH 6.8, 37° C.
Procedure: The solubilization profile was obtained of various compositions in USP Simulated Gastric Fluid (SGF) and USP Simulated Intestinal Fluid (SIF) with pH 1.2 and 6.8, respectively. […] The concentration of the solution was based on the hypothesis that the test should simulate a dissolution test for a 100 mg dose strength tablet or capsule in 900 ml of dissolution media.
The solubility was tested for the crystalline compound 1 with a purity of 98.9%, and for the amorphous compositions of Examples 6M and 6O (Lots 031 and 033). The following procedure was followed: • A shaking water bath was filled and water temperature left to equilibrate to 37° C. for 24 hours. • USP simulated gastric fluid was prepared as described in the UPS 31, Solutions: Test solutions. • USP simulated intestinal fluid was prepared as described in the UPS 31, Solutions: Test solutions. • The equivalent of 12.5 mg of Compound 1 was weighed and transferred into a 125 mL Erlenmeyer flask, with 100 mL of medium. […]
The amount of dissolved material was determined with respect to a standard and is reported as the percentage of material dissolved with respect to the standard as well as in absolute mg/ml.

[4] = system: moderate persistent asthma; details: Barnes et al., European Respiratory Journal 34, suppl. 53, 2009; cited from earlier work

Solubility in water [1]: 15370 µg/mL | Compound 1 Solubility ([1]; Water): 15370 µg/mL | solubility ([1]; Water + 1% SDS, aqueous with cosolvent or surfactant or cyclodextrin, Water + 1% SDS): > 30000 µg/mL | solubility ([1]; Water + 1% Tween 20, aqueous with cosolvent or surfactant or cyclodextrin, Water + 1% Tween 20): > 26000 µg/mL | solubility ([1]; Water + 1% Tween 80, aqueous with cosolvent or surfactant or cyclodextrin, Water + 1% Tween 80): > 21000 µg/mL | Compound 1 Solubility ([1]; pH 1.0): 3.6 µg/mL | Compound 1 Solubility ([1]; pH 4.5): 2605 µg/mL | solubility ([1]; pH 6.8 + 1% HTAB, pH 6.8, aqueous with cosolvent or surfactant or cyclodextrin, pH 6.8 + 1% HTAB): 4110 µg/mL | solubility ([1]; pH 6.8 + 1% Tween 20, pH 6.8, aqueous with cosolvent or surfactant or cyclodextrin, pH 6.8 + 1% Tween 20): 128 µg/mL | solubility ([1]; pH 6.8 + 1% Tween 80, pH 6.8, aqueous with cosolvent or surfactant or cyclodextrin, pH 6.8 + 1% Tween 80): 3220 µg/mL | Compound 1 Solubility ([1]; pH 6.8 K): 8554 µg/mL | solubility ([1]; pH 6.8 Na (sodium buffer), pH 6.8, aqueous buffer, pH 6.8 Na): 2490 µg/mL | Compound 1 Solubility ([1]; pH 8.0 K): 5571 µg/mL | Compound 1 Solubility ([1]; pH 8.0 Na): 1744 µg/mL | Increase in water solubility [1]: 2561667%
SMILES: Cc1c(Cc2ccc3ccccc3n2)c2cc(F)ccc2n1CC(=O)O [Compound 1 sodium salt]

solubility ([2]; aqueous buffer, Sodium hydroxide 0.5N, at 45° C.): > 90000 µg/mL | solubility at 12 h ([2]; aqueous buffer, Tris(hydroxymethyl) aminoethane (1% w/v)): < 500 µg/mL | solubility at 12 h ([2]; aqueous with cosolvent or surfactant or cyclodextrin, DMSO/H2O (50/50 v/v)): < 500 µg/mL | solubility at 12 h ([2]; aqueous with cosolvent or surfactant or cyclodextrin, DMSO/H2O (75/25 v/v)): 2000 to 2500 µg/mL (≈ 5740 to 7180 µM) | solubility at 12 h ([2]; aqueous with cosolvent or surfactant or cyclodextrin, Hexadecyltrimethylammonium (0.05% w/v)): < 500 µg/mL | solubility at 12 h ([2]; aqueous with cosolvent or surfactant or cyclodextrin, Sodium dodecyl sulfate (2% w/v)): < 500 µg/mL | solubility at 12 h ([2]; aqueous with cosolvent or surfactant or cyclodextrin, Span 80 (1% v/v)): < 500 µg/mL | solubility at 12 h ([2]; aqueous with cosolvent or surfactant or cyclodextrin, Tween 80 (1% v/v)): < 500 µg/mL | solubility at 12 h ([2]; organic solvent or mixture, Carbon tetrachloride): < 500 µg/mL | solubility at 12 h ([2]; organic solvent or mixture, Chloroform): < 500 µg/mL | solubility at 12 h ([2]; organic solvent or mixture, DMSO/DCM (50/50 v/v)): 1000 to 1500 µg/mL (≈ 2870 to 4310 µM) | solubility at 12 h ([2]; organic solvent or mixture, DMSO/DCM (75/25 v/v)): 2500 to 3000 µg/mL (≈ 7180 to 8610 µM) | solubility at 12 h ([2]; organic solvent or mixture, DMSO/Ethanol (50/50 v/v)): 500 to 1000 µg/mL (≈ 1440 to 2870 µM) | solubility at 12 h ([2]; organic solvent or mixture, DMSO/Ethanol (75/25 v/v)): 500 to 1000 µg/mL (≈ 1440 to 2870 µM) | solubility at 12 h ([2]; organic solvent or mixture, Dichloromethane (DCM)): < 500 µg/mL | solubility at 12 h ([2]; organic solvent or mixture, Dimethyl sulfoxide (DMSO)): 5500 to 6000 µg/mL (≈ 15800 to 17200 µM) | solubility at 12 h ([2]; organic solvent or mixture, Toluene): < 500 µg/mL | solubility at 12 h ([2]; Purified water): < 500 µg/mL | solubility in SGF and SIF [3]: very poor solubility | Solubility in water [1]: 0.6 µg/mL (≈ 1.72 µM) | Compound 1 Solubility ([1]; Water): 0.6 µg/mL | solubility ([1]; aqueous medium pH 1.0, pH 1, simulated gastric fluid, pH 1.0): 2.1 µg/mL (≈ 6.03 µM) | Compound 1 Solubility ([1]; pH 4.5): 1.9 µg/mL | Compound 1 Solubility ([1]; pH 6.8 K): 0.3 µg/mL | Compound 1 Solubility ([1]; pH 8.0 K): 0.8 µg/mL | Compound 1 Solubility ([1]; pH 8.0 Na): 0.3 µg/mL
SMILES: Cc1c(Cc2ccc3ccccc3n2)c2cc(F)ccc2n1CC(=O)O [Compound 1, (5-Fluoro-2-methyl-3-quinolin-2-ylmethyl-indol-1-yl)-acetic acid]
efficacy in animal models of asthma (animal models of asthma): effective | efficacy in a clinical trial with human asthma patients [4]: effective

Solubility in water [1]: 16870 µg/mL | Compound 1 Solubility ([1]; Water): 16870 µg/mL | Compound 1 Solubility ([1]; Water + 1% SDS): >17000 µg/mL | Compound 1 Solubility ([1]; Water + 1% Tween 20): >22000 µg/mL | Compound 1 Solubility ([1]; Water + 1% Tween 80): >14000 µg/mL | Compound 1 Solubility ([1]; pH 1.0): 9.1 µg/mL | Compound 1 Solubility ([1]; pH 4.5): 5 µg/mL | Compound 1 Solubility ([1]; pH 6.8 + 1% HTAB): 3597 µg/mL | Compound 1 Solubility ([1]; pH 6.8 + 1% Tween 20): 162.3 µg/mL | Compound 1 Solubility ([1]; pH 6.8 + 1% Tween 80): 226 µg/mL | Compound 1 Solubility ([1]; pH 6.8 K): 0.2 µg/mL | Compound 1 Solubility ([1]; pH 6.8 Na): 0.6 µg/mL | Compound 1 Solubility ([1]; pH 8.0 K): 2740 µg/mL | Compound 1 Solubility ([1]; pH 8.0 Na): 1782 µg/mL | Increase in water solubility [1]: 2811667%
SMILES: Cc1c(Cc2ccc3ccccc3n2)c2cc(F)ccc2n1CC(=O)[O-].[Na+] [Lot 002]
